Reference: PubChem BioAssay (NCI)
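Method: 48-hour compound exposure of cells in 96-well plates, five concentrations, linear interpolation of endpoints. The concentration for full growth arrest is given as TGI.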

Experiments:
Assay in all cases: growth of human tumour cells (NCI), 48 h
CAKI-1 renal = tested on: CAKI-1 renal
HCT-116 colon = tested on: HCT-116 colon
LOX IMVI melanoma = tested on: LOX IMVI melanoma
UO-31 renal = tested on: UO-31 renal
KM12 colon = tested on: KM12 colon
MDA-MB-435 = tested on: MDA-MB-435
EKVX NSCLC = tested on: EKVX NSCLC
A549 NSCLC = tested on: A549 NSCLC
HOP-62 NSCLC = tested on: HOP-62 NSCLC
RXF 393 renal = tested on: RXF 393 renal
SN12C renal = tested on: SN12C renal
RPMI-8226 leukemia = tested on: RPMI-8226 leukemia
OVCAR-4 ovarian = tested on: OVCAR-4 ovarian
SNB-75 CNS = tested on: SNB-75 CNS
CCRF-CEM leukemia = tested on: CCRF-CEM leukemia
BT-549 breast = tested on: BT-549 breast
SF-295 CNS = tested on: SF-295 CNS
NCI-H460 lung = tested on: NCI-H460 lung
NCI-H23 lung = tested on: NCI-H23 lung
SK-MEL-2 melanoma = tested on: SK-MEL-2 melanoma

Row | Structure (SMILES) | TGI (CAKI-1 renal) [µM] | TGI (HCT-116 colon) [µM] | TGI (LOX IMVI melanoma) [µM] | TGI (UO-31 renal) [µM] | TGI (KM12 colon) [µM] | TGI (MDA-MB-435) [µM] | TGI (EKVX NSCLC) [µM] | TGI (A549 NSCLC) [µM] | TGI (HOP-62 NSCLC) [µM] | TGI (RXF 393 renal) [µM] | TGI (SN12C renal) [µM] | TGI (RPMI-8226 leukemia) [µM] | TGI (OVCAR-4 ovarian) [µM] | TGI (SNB-75 CNS) [µM] | TGI (CCRF-CEM leukemia) [µM] | TGI (BT-549 breast) [µM] | TGI (SF-295 CNS) [µM] | TGI (NCI-H460 lung) [µM] | TGI (NCI-H23 lung) [µM] | TGI (SK-MEL-2 melanoma) [µM]
1 | O=c1c2cc(-c3ccccc3)sc2nc2n1N=C(c1ccc(Cl)cc1)CS2 | > 100 | > 100 | > 100 | > 100 | > 100 | > 100 | > 100 | > 100 | > 100 | > 100 | > 100 | > 100 | > 100 | > 100 | > 100 | > 100 | > 100 | > 100 | > 100 | –
2 | O=C(Nc1ccccc1)c1cc2ccccc2c(N=Nc2ccc([N+](=O)[O-])cc2)c1O | > 100 | > 100 | > 100 | > 100 | > 100 | > 100 | > 100 | > 100 | > 100 | > 100 | > 100 | > 100 | > 100 | > 100 | 46.4 | > 100 | > 100 | – | > 100 | > 100
3 | Cc1cc(C)c(S(=O)(=O)N2CCCN(S(=O)(=O)c3c(C)cc(C)cc3C)OCCCO2)c(C)c1 | > 100 | > 100 | > 100 | > 100 | > 100 | > 100 | > 100 | > 100 | > 100 | > 100 | > 100 | – | > 100 | > 100 | > 100 | > 100 | > 100 | > 100 | > 100 | > 100
4 | CC1CN=C(Nc2ccccc2)S1 (stereo not given) | > 100 | > 100 | > 100 | > 100 | > 100 | > 100 | > 100 | > 100 | > 100 | > 100 | > 100 | > 100 | – | > 100 | > 100 | > 100 | > 100 | > 100 | > 100 | > 100
5 | Nc1c2ccccc2nc2ccc3c(=O)cc(-c4ccccc4)oc3c12 | 2.63 | 0.306 | – | 2.86 | 2.16 | 2.39 | 2.8 | – | – | 2.91 | – | 0.697 | 1.1 | 3.58 | – | 59.7 | – | 2.22 | 3.52 | 3.65
6 | CC(=O)[C@@H]1C/C(=C\OCc2ccccc2)O[C@H]1C | > 100 | > 100 | > 100 | > 100 | > 100 | > 100 | > 100 | > 100 | > 100 | > 100 | > 100 | > 100 | > 100 | > 100 | – | > 100 | > 100 | > 100 | > 100 | –
7 | CC(=O)O/C=C1/C[C@H]2[C@@H]3CCC4CC(C(C)=O)CC[C@]4(C)[C@H]3CC[C@]2(C)C1=O (stereo not given in full) | > 100 | > 100 | > 100 | > 100 | 93.3 | > 100 | > 100 | – | > 100 | > 100 | > 100 | – | > 100 | – | > 100 | > 100 | > 100 | > 100 | > 100 | > 100
